Test results published in patent USRE48335E1, “Polymyxin derivatives as antimicrobial compounds” (priority 2014, dated 2020).
≈ marks a conversion by molar mass, not a printed value. Where two headings read alike, the source gives them in different places. Positions of bridges follow the written chain, without caps; N, C: chain ends. Non-standard residues stand in square brackets, D forms with d. Residues, ends and D or L forms follow the SMILES beside them. *: point of attachment. Benzoyl(4-(4-Cl-Ph)) = O=C(c1ccc(-c2ccc(Cl)cc2)cc1)*; Benzoyl(3,5-Cl2) = O=C(c1cc(Cl)cc(Cl)c1)*; Benzoyl(3-CF3) = O=C(c1cccc(C(F)(F)F)c1)*; Phenylacetyl(4-Cl) = O=C(Cc1ccc(Cl)cc1)*; X18 = O=C(c1ccc(Cl)c(C(F)(F)F)c1)*; X20 = Cc1cc(C(=O)*)ccc1C(F)(F)F; Decanoyl = CCCCCCCCCC(=O)*; dNle = CCCC[C@@H](N)C(=O)O; Nonanoyl = CCCCCCCCC(=O)*; Dab = NCC[C@H](N)C(=O)O; Abu = CC[C@H](N)C(=O)O; Dap = NC[C@H](N)C(=O)O

Columns and labels:
Klebsiella pneumoniae = test system: Klebsiella pneumoniae
How it was run: (§1)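 Minimum inhibitory concentrations come from CLSI-standard broth microdilution in cation-adjusted Mueller-Hinton broth.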

Enterobacter cloacae = test system: Enterobacter cloacae
How it was run: as §1

Acinetobacter baumannii = test system: Acinetobacter baumannii
How it was run: as §1

Pseudomonas aeruginosa = test system: Pseudomonas aeruginosa
How it was run: as §1

P. aeruginosa ATCC 27853 = assay: In vivo efficacy in mouse blood infection model (neutropenic Swiss mice); conditions: compound, free base 4 mg/kg intravenously 2 h after inoculation, blood at 4 h
How it was run: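 Neutropenic Swiss mice (cyclophosphamide 150 mg/kg day −4, 100 mg/kg day −1, i.p.) infected i.v. with early log-phase bacteria; 4 mg/kg free base i.v. given 2 h post-inoculation. Blood CFU by cardiac puncture 4 h post-dose; Δlog10 CFU/mL treated versus saline controls.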

Compound	MIC (Klebsiella pneumoniae)	Minimum inhibitory concentration, Ec FADDI-EC001 (Enterobacter cloacae)	Minimum inhibitory concentration, Ec FADDI-EC003 (Enterobacter cloacae)	Minimum inhibitory concentration, Ec FADDI-EC006 (Enterobacter cloacae)	MIC (Acinetobacter baumannii)	Minimum inhibitory concentration, Ab A ATCC 17978 (Acinetobacter baumannii)	Minimum inhibitory concentration, Ab ATCC 19606 (Acinetobacter baumannii)	Minimum inhibitory concentration, Ab FADDI-AB034 (Acinetobacter baumannii)	MIC (Pseudomonas aeruginosa)	Minimum inhibitory concentration, Pa ATCC 27853 (Pseudomonas aeruginosa)	Minimum inhibitory concentration, Pa FADDI-PA022 (Pseudomonas aeruginosa)	Minimum inhibitory concentration, Pa FADDI-PA025 (Pseudomonas aeruginosa)	Δ log (Treated-Control at 4 h) (P. aeruginosa ATCC 27853)	also measured
CC[C@@H]1NC(=O)[C@@H](CC(C)C)NC(=O)[C@H](CCN)NC(=O)[C@@H](NC(=O)[C@H](CN)NC(=O)[C@@H](NC(=O)[C@H](CCN)NC(=O)c2ccc(C(F)(F)F)c(C)c2)[C@@H](C)O)CCNC(=O)[C@H]([C@@H](C)O)NC(=O)[C@H](CCN)NC(=O)[C@H](CCN)NC1=O [Compound 119] (X20-[Dab]T[Dap][Dab][Dab][dL][Abu][Dab][Dab]T; lactam 4-C)	<0.125 mg/L	<0.125 mg/L	<0.125 mg/L	0.25 mg/L (≈ 0.213 µM)	1 mg/L (≈ 0.852 µM)	0.5 mg/L (≈ 0.426 µM)	1 mg/L (≈ 0.852 µM)	0.25 mg/L (≈ 0.213 µM)	0.5 mg/L (≈ 0.426 µM)	0.5 mg/L (≈ 0.426 µM)	0.5 mg/L (≈ 0.426 µM)	2 mg/L (≈ 1.7 µM)	−3.40 log10 CFU/mL	–
CC[C@@H]1NC(=O)[C@@H](CC(C)C)NC(=O)[C@H](CCN)NC(=O)[C@@H](NC(=O)[C@H](CN)NC(=O)[C@@H](NC(=O)[C@H](CCN)NC(=O)Cc2ccc(Cl)cc2)[C@@H](C)O)CCNC(=O)[C@H]([C@@H](C)O)NC(=O)[C@H](CCN)NC(=O)[C@H](CCN)NC1=O [Compound 77] ({Phenylacetyl(4-Cl)}-[Dab]T[Dap][Dab][Dab][dL][Abu][Dab][Dab]T; lactam 4-C)	<0.125 mg/L	0.5 mg/L (≈ 0.439 µM)	<0.125 mg/L	0.25 mg/L (≈ 0.219 µM)	4 mg/L (≈ 3.51 µM)	0.5 mg/L (≈ 0.439 µM)	4 mg/L (≈ 3.51 µM)	1 mg/L (≈ 0.877 µM)	0.25 mg/L (≈ 0.219 µM)	0.25 mg/L (≈ 0.219 µM)	0.5 mg/L (≈ 0.439 µM)	4 mg/L (≈ 3.51 µM)	−2.28 log10 CFU/mL	–
CCCCCCCCCC(=O)N[C@@H](CCN)C(=O)N[C@H](C(=O)N[C@@H](CCN)C(=O)N[C@H]1CCNC(=O)[C@H]([C@@H](C)O)NC(=O)[C@H](CCN)NC(=O)[C@H](CCN)NC(=O)[C@H]([C@@H](C)O)NC(=O)[C@@H](CC(C)C)NC(=O)[C@H](CCN)NC1=O)[C@@H](C)O [Compound 27] (Decanoyl-[Dab]T[Dab][Dab][Dab][dL]T[Dab][Dab]T; lactam 4-C)	0.5 mg/L (≈ 0.427 µM)	<0.125 mg/L	<0.125 mg/L	0.25 mg/L (≈ 0.213 µM)	1 mg/L (≈ 0.854 µM)	1 mg/L (≈ 0.854 µM)	1 mg/L (≈ 0.854 µM)	1 mg/L (≈ 0.854 µM)	1 mg/L (≈ 0.854 µM)	1 mg/L (≈ 0.854 µM)	1 mg/L (≈ 0.854 µM)	16 mg/L (≈ 13.7 µM)	−3.67 log10 CFU/mL	–
CCCC[C@H]1NC(=O)[C@H](CCN)NC(=O)[C@@H](NC(=O)[C@H](CN)NC(=O)[C@@H](NC(=O)[C@H](CCN)NC(=O)c2cccc(C(F)(F)F)c2)[C@@H](C)O)CCNC(=O)[C@H]([C@@H](C)O)NC(=O)[C@H](CCN)NC(=O)[C@H](CCN)NC(=O)[C@H](CC)NC1=O [Compound 121] ({Benzoyl(3-CF3)}-[Dab]T[Dap][Dab][Dab][dNle][Abu][Dab][Dab]T; lactam 4-C)	0.25 mg/L (≈ 0.216 µM)	0.25 mg/L (≈ 0.216 µM)	0.25 mg/L (≈ 0.216 µM)	0.25 mg/L (≈ 0.216 µM)	0.5 mg/L (≈ 0.431 µM)	0.5 mg/L (≈ 0.431 µM)	0.5 mg/L (≈ 0.431 µM)	0.5 mg/L (≈ 0.431 µM)	0.5 mg/L (≈ 0.431 µM)	0.5 mg/L (≈ 0.431 µM)	1 mg/L (≈ 0.863 µM)	2 mg/L (≈ 1.73 µM)	−2.81 log10 CFU/mL	–
CCCCCCCCC(=O)N[C@@H](CCN)C(=O)N[C@H](C(=O)N[C@@H](CN)C(=O)N[C@H]1CCNC(=O)[C@H]([C@@H](C)O)NC(=O)[C@H](CCN)NC(=O)[C@H](CCN)NC(=O)[C@H](CO)NC(=O)[C@@H](Cc2ccccc2)NC(=O)[C@H](CCN)NC1=O)[C@@H](C)O [Compound 143] (Nonanoyl-[Dab]T[Dap][Dab][Dab][dF]S[Dab][Dab]T; lactam 4-C)	0.25 mg/L (≈ 0.215 µM)	–	–	–	1 mg/L (≈ 0.86 µM)	–	–	–	0.5 mg/L (≈ 0.43 µM)	–	–	–	−3.47 log10 CFU/mL	Minimum inhibitory concentration (MIC), Ec FADDI-EC001 (Enterobacter cloacae): 1 mg/L (≈ 0.86 µM); Minimum inhibitory concentration (MIC), Ec FADDI-EC003 (Enterobacter cloacae): 0.5 mg/L (≈ 0.43 µM); Minimum inhibitory concentration (MIC), Ec FADDI-EC006 (Enterobacter cloacae): 0.5 mg/L (≈ 0.43 µM); Minimum inhibitory concentration (MIC), Ab ATCC 17978 (Acinetobacter baumannii): 1 mg/L (≈ 0.86 µM); Minimum inhibitory concentration (MIC), Ab ATCC 19606 (Acinetobacter baumannii): 1 mg/L (≈ 0.86 µM); Minimum inhibitory concentration (MIC), Ab FADDI-AB034 (Acinetobacter baumannii): 0.5 mg/L (≈ 0.43 µM); Minimum inhibitory concentration (MIC), Pa ATCC 27853 (Pseudomonas aeruginosa): 0.5 mg/L (≈ 0.43 µM); Minimum inhibitory concentration (MIC), Pa FADDI-PA022 (Pseudomonas aeruginosa): 0.5 mg/L (≈ 0.43 µM); Minimum inhibitory concentration (MIC), Pa FADDI-PA025 (Pseudomonas aeruginosa): 16 mg/L (≈ 13.8 µM)
CC(C)C[C@H]1NC(=O)[C@H](CCN)NC(=O)[C@@H](NC(=O)[C@H](CN)NC(=O)[C@@H](NC(=O)[C@H](CCN)NC(=O)c2ccc(-c3ccc(Cl)cc3)cc2)[C@@H](C)O)CCNC(=O)[C@H]([C@@H](C)O)NC(=O)[C@H](CCN)NC(=O)[C@H](CCN)NC(=O)[C@H](C)NC1=O [Compound 144] ({Benzoyl(4-(4-Cl-Ph))}-[Dab]T[Dap][Dab][Dab][dL]A[Dab][Dab]T; lactam 4-C)	–	–	–	–	–	–	–	–	–	–	–	–	−2.98 log10 CFU/mL	MIC (Klebsiella pneumoniae; K. pneumoniae FADDI-KP032): 1 mg/L (≈ 0.842 µM); Minimum inhibitory concentration (MIC), Ec FADDI-EC001 (Enterobacter cloacae; Enterobacter cloacae FADDI-EC001, broth microdilution in CAMHB, TFA salt): 2 mg/L; Minimum inhibitory concentration (MIC), Ec FADDI-EC003 (Enterobacter cloacae; Enterobacter cloacae FADDI-EC003, broth microdilution in CAMHB, TFA salt): 1 mg/L; Minimum inhibitory concentration (MIC), Ec FADDI-EC006 (Enterobacter cloacae; Enterobacter cloacae FADDI-EC006, broth microdilution in CAMHB, TFA salt): 1 mg/L; MIC (Acinetobacter baumannii; A. baumannii ATCC 19606): 1 mg/L (≈ 0.842 µM); Minimum inhibitory concentration (MIC), Ab ATCC 17978 (Acinetobacter baumannii; Acinetobacter baumannii ATCC 17978, broth microdilution in CAMHB, TFA salt): 1 mg/L; Minimum inhibitory concentration (MIC), Ab ATCC 19606 (Acinetobacter baumannii; Acinetobacter baumannii ATCC 19606, broth microdilution in CAMHB, TFA salt): 1 mg/L; Minimum inhibitory concentration (MIC), Ab FADDI-AB034 (Acinetobacter baumannii; Acinetobacter baumannii FADDI-AB034, broth microdilution in CAMHB, TFA salt): 0.5 mg/L; MIC (Pseudomonas aeruginosa; P. aeruginosa ATCC 27853): 1 mg/L (≈ 0.842 µM); Minimum inhibitory concentration (MIC), Pa ATCC 27853 (Pseudomonas aeruginosa; Pseudomonas aeruginosa ATCC 27853, broth microdilution in CAMHB, TFA salt): 1 mg/L; Minimum inhibitory concentration (MIC), Pa FADDI-PA022 (Pseudomonas aeruginosa; Pseudomonas aeruginosa FADDI-PA022, broth microdilution in CAMHB, TFA salt): 2 mg/L; Minimum inhibitory concentration (MIC), Pa FADDI-PA025 (Pseudomonas aeruginosa; Pseudomonas aeruginosa FADDI-PA025, broth microdilution in CAMHB, TFA salt): 1 mg/L
CC(C)C[C@H]1NC(=O)[C@H](CCN)NC(=O)[C@@H](NC(=O)[C@H](CN)NC(=O)[C@@H](NC(=O)[C@H](CCN)NC(=O)c2cc(Cl)cc(Cl)c2)[C@@H](C)O)CCNC(=O)[C@H]([C@@H](C)O)NC(=O)[C@H](CCN)NC(=O)[C@H](CCN)NC(=O)[C@H]([C@@H](C)O)NC1=O [Compound 118] ({Benzoyl(3,5-Cl2)}-[Dab]T[Dap][Dab][Dab][dL]T[Dab][Dab]T; lactam 4-C)	–	–	–	–	–	–	–	–	–	–	–	–	−3.53 log10 CFU/mL	MIC (Klebsiella pneumoniae; K. pneumoniae FADDI-KP032): 0.25 mg/L (≈ 0.213 µM); Minimum inhibitory concentration, Ec FADDI-EC001 (Enterobacter cloacae; Enterobacter cloacae FADDI-EC001, broth microdilution in CAMHB): 1 mg/L (≈ 0.85 µM); Minimum inhibitory concentration, Ec FADDI-EC003 (Enterobacter cloacae; Enterobacter cloacae FADDI-EC003, broth microdilution in CAMHB): 0.25 mg/L (≈ 0.213 µM); Minimum inhibitory concentration, Ec FADDI-EC006 (Enterobacter cloacae; Enterobacter cloacae FADDI-EC006, broth microdilution in CAMHB): 0.5 mg/L (≈ 0.425 µM); MIC (Acinetobacter baumannii; A. baumannii ATCC 19606): 2 mg/L (≈ 1.7 µM); Minimum inhibitory concentration, Ab A ATCC 17978 (Acinetobacter baumannii; Acinetobacter baumannii ATCC 17978, broth microdilution in CAMHB): >32 mg/L; Minimum inhibitory concentration, Ab ATCC 19606 (Acinetobacter baumannii; Acinetobacter baumannii ATCC 19606, broth microdilution in CAMHB): 2 mg/L (≈ 1.7 µM); Minimum inhibitory concentration, Ab FADDI-AB034 (Acinetobacter baumannii; Acinetobacter baumannii FADDI-AB034, broth microdilution in CAMHB): 1 mg/L (≈ 0.85 µM); MIC (Pseudomonas aeruginosa; P. aeruginosa ATCC 27853): 0.5 mg/L (≈ 0.425 µM); Minimum inhibitory concentration, Pa ATCC 27853 (Pseudomonas aeruginosa; Pseudomonas aeruginosa ATCC 27853, broth microdilution in CAMHB): 0.5 mg/L (≈ 0.425 µM); Minimum inhibitory concentration, Pa FADDI-PA022 (Pseudomonas aeruginosa; Pseudomonas aeruginosa FADDI-PA022, broth microdilution in CAMHB): 2 mg/L (≈ 1.7 µM); Minimum inhibitory concentration, Pa FADDI-PA025 (Pseudomonas aeruginosa; Pseudomonas aeruginosa FADDI-PA025, broth microdilution in CAMHB): 2 mg/L (≈ 1.7 µM)
CC[C@@H]1NC(=O)[C@@H](CC(C)C)NC(=O)[C@H](CCN)NC(=O)[C@@H](NC(=O)[C@H](CN)NC(=O)[C@@H](NC(=O)[C@H](CCN)NC(=O)c2ccc(Cl)c(C(F)(F)F)c2)[C@@H](C)O)CCNC(=O)[C@H]([C@@H](C)O)NC(=O)[C@H](CCN)NC(=O)[C@H](CCN)NC1=O [Compound 112] (X18-[Dab]T[Dap][Dab][Dab][dL][Abu][Dab][Dab]T; lactam 4-C)	0.5 mg/L (≈ 0.419 µM)	0.5 mg/L (≈ 0.419 µM)	0.25 mg/L (≈ 0.209 µM)	0.5 mg/L (≈ 0.419 µM)	0.25 mg/L (≈ 0.209 µM)	<0.125 mg/L	0.25 mg/L (≈ 0.209 µM)	0.25 mg/L (≈ 0.209 µM)	0.5 mg/L (≈ 0.419 µM)	0.5 mg/L (≈ 0.419 µM)	0.5 mg/L (≈ 0.419 µM)	1 mg/L (≈ 0.838 µM)	−3.15 log10 CFU/mL	–
